Experimental data from patent publication US12421225B2, “Heteroaromatic amide derivative and medicament containing the same” (KAKEN PHARMACEUTICAL CO., LTD., priority 2018, dated 2025).
Counter-ions that a name gives are not always drawn.

Experiments:
human Nav1.7 = human Nav1.7 (Homo sapiens (Human), UniProt Q15858); experiment: Human Nav1.7 inhibitory activity evaluation (automated patch clamp QPatch16X, HEK293A cells stably expressing human Nav1.7 and human Navβ1); format: cell-based
In short: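 IC50 calculated from the concentration-response of inward current evoked by the second −10 mV, 50 ms depolarisation, which follows a 15 s conditioning step at roughly 30-40% inactivation and a 100 ms −120 mV interval. Cells: HEK293A expressing human Nav1.7/Navβ1, automated patch clamp, room temperature, 0.1% DMSO final.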

human Nav1.5 = human Nav1.5 (Homo sapiens (Human), UniProt Q14524); experiment: Human Nav1.5 inhibitory activity evaluation (automated patch clamp QPatch16X, HEK293 cells stably expressing human Nav1.5); format: cell-based
Chain of human Nav1.5 (Q14524 whole entry): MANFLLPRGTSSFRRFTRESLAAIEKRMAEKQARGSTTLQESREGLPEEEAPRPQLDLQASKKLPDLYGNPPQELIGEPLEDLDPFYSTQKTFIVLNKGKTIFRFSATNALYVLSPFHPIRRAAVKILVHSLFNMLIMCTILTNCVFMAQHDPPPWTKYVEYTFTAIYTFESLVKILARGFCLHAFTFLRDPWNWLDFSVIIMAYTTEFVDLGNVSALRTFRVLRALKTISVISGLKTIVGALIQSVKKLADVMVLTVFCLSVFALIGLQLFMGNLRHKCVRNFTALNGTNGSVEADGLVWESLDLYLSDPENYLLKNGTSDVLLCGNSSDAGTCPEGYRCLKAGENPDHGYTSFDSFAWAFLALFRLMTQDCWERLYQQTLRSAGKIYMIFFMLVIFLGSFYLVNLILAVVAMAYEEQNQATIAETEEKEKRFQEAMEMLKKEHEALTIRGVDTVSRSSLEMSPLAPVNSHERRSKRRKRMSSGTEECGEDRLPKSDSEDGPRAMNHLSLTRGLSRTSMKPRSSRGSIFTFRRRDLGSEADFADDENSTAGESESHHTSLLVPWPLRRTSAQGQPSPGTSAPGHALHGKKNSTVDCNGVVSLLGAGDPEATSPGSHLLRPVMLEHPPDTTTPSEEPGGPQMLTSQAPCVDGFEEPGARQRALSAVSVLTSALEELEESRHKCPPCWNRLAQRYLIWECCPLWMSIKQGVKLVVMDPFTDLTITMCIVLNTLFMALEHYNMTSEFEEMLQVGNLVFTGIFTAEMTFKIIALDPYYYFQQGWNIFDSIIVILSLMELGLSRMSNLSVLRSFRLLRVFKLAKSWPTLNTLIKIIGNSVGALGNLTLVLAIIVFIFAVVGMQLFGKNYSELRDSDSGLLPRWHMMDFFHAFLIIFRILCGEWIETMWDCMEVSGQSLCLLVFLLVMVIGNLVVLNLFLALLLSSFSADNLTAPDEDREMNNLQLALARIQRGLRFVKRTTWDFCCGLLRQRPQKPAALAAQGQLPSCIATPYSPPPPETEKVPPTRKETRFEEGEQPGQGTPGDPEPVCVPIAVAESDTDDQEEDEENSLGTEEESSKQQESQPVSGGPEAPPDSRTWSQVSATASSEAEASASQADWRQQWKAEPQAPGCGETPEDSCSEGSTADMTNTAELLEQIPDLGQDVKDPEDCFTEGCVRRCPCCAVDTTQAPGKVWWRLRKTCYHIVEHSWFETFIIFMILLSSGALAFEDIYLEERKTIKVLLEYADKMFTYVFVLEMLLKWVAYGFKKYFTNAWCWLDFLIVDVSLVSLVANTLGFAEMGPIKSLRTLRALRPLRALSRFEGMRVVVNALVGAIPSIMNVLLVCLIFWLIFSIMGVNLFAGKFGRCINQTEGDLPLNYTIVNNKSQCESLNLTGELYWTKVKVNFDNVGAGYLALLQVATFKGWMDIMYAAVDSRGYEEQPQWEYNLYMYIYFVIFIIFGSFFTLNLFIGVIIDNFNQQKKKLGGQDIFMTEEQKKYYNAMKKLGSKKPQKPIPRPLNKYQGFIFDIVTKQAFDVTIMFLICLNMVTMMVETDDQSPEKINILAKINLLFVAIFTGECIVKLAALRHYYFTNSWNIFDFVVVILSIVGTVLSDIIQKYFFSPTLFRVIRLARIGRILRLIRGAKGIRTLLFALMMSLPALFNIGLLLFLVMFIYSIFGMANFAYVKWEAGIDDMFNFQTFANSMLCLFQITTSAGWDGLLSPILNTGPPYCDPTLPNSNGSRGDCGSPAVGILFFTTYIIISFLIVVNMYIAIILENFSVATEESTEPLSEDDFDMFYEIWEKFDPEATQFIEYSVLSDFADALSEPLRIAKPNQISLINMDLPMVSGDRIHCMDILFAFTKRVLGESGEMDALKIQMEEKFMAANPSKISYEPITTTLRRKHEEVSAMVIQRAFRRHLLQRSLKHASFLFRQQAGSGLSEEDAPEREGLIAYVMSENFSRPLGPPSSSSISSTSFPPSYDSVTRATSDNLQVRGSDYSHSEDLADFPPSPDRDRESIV
In short: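 IC50 derived from concentration-response of inward current at the 20th of 20 action-potential-mimicking pulses (holding −80 mV, leak corrected with −100 mV step). HEK293 cells stably expressing human Nav1.5, room temperature, extracellular pH 7.4, intracellular CsF-based pH 7.3, 0.1% DMSO.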

male ICR mice [1] = experiment: Effect on acute pain (capsaicin-induced pain-related behavior, hind paw); format: in vivo
Protocol: Test Example 3: Effect on Acute Pain
Six-week old male ICR mice were used for the test. Test compounds were orally administered at 1-10 mg/kg and the mice were habituated to a clear observation cage for 60 minutes. The mice were lightly restrained under no anesthesia and 20 μL of 80 μg/mL (0.8% ethanol-saline) capsaicin solution was injected subcutaneously into the plantar surface of rihgt hind paw of mice. The mice were returned to the observation cage and, from just after that, the duration of pain-related behavior (licking, shaking) occurring in the right hind limb was measured as the reaction time for 5 minutes.
The inhibition rate of the test compound was determined by the following calculation formula. Test compound inhibition rate (%)=100×[1−(response time of test compound administered group/response time of vehicle control group)]

male ICR mice [2] = experiment: Effect on a neuropathic pain (L5 spinal nerve cut, von Frey 50% pain threshold); format: in vivo; details: allodynia-developed mice, dose of 10 mg/kg or less, single oral administration
Protocol: Test Example 4: Effect on a Neuropathic Pain
Five-week old male ICR mice were used for the test. The skin and muscles were incised to expose the sixth lumbar vertebra under isoflurane anesthesia, and the right transverse process was removed. The L5 spinal nerve was isolated from the surrounding tissue to cut out, and then the incision site was sutured.
The 50% pain threshold of the plantar surface was determined by referring to the method of Chaplan S R et al. (J Neurosci Methods 1994, 53: 55-63) using von Frey filaments (0.008 g, 0.02 g, 0.04 g, 0.07 g, 0.16 g, 0.4 g and 0.6 g). First, the mice were placed in a measurement case with a lattice scaffold and habituatedd until the animal settled; 0.07 g of filament was pressed against the plantar surface for about 3 seconds. If withdrawal behavior was observed, the filament with the stimulation intensity one level lower was used to apply stimulation, and conversely, if the withdrawal behavior was not detected, the filament with the stimulation intensity one level higher was used to apply stimulation. By repeating this operation, starting from 2 times before and after the presence or absence of escape behavior changed, the results for a total of 6 times were recorded, to calculate a 50% pain threshold using the following calculation formula. 50% pain threshold (g)=(10^[Xf+κδ]/10000)
Xf is the value of the stimulus intensity of the filament used in the last stimulation (log value), κ is the value derived from the pattern of presence/absence of withdrawal behavior for 6 times, and δ is the difference in stimulus intensity (log value) between the filaments used (here 0.365).

[3] = HEK293A cells stably expressing human Nav1.7 and human Navβ1, automated patch clamp QPatch16X
[4] = HEK293 cells stably expressing human Nav1.5, automated patch clamp QPatch16X
[5] = human Nav1.5, automated patch clamp
[6] = human Nav1.7, automated patch clamp

Chain of human Nav1.7 (Q15858 whole entry): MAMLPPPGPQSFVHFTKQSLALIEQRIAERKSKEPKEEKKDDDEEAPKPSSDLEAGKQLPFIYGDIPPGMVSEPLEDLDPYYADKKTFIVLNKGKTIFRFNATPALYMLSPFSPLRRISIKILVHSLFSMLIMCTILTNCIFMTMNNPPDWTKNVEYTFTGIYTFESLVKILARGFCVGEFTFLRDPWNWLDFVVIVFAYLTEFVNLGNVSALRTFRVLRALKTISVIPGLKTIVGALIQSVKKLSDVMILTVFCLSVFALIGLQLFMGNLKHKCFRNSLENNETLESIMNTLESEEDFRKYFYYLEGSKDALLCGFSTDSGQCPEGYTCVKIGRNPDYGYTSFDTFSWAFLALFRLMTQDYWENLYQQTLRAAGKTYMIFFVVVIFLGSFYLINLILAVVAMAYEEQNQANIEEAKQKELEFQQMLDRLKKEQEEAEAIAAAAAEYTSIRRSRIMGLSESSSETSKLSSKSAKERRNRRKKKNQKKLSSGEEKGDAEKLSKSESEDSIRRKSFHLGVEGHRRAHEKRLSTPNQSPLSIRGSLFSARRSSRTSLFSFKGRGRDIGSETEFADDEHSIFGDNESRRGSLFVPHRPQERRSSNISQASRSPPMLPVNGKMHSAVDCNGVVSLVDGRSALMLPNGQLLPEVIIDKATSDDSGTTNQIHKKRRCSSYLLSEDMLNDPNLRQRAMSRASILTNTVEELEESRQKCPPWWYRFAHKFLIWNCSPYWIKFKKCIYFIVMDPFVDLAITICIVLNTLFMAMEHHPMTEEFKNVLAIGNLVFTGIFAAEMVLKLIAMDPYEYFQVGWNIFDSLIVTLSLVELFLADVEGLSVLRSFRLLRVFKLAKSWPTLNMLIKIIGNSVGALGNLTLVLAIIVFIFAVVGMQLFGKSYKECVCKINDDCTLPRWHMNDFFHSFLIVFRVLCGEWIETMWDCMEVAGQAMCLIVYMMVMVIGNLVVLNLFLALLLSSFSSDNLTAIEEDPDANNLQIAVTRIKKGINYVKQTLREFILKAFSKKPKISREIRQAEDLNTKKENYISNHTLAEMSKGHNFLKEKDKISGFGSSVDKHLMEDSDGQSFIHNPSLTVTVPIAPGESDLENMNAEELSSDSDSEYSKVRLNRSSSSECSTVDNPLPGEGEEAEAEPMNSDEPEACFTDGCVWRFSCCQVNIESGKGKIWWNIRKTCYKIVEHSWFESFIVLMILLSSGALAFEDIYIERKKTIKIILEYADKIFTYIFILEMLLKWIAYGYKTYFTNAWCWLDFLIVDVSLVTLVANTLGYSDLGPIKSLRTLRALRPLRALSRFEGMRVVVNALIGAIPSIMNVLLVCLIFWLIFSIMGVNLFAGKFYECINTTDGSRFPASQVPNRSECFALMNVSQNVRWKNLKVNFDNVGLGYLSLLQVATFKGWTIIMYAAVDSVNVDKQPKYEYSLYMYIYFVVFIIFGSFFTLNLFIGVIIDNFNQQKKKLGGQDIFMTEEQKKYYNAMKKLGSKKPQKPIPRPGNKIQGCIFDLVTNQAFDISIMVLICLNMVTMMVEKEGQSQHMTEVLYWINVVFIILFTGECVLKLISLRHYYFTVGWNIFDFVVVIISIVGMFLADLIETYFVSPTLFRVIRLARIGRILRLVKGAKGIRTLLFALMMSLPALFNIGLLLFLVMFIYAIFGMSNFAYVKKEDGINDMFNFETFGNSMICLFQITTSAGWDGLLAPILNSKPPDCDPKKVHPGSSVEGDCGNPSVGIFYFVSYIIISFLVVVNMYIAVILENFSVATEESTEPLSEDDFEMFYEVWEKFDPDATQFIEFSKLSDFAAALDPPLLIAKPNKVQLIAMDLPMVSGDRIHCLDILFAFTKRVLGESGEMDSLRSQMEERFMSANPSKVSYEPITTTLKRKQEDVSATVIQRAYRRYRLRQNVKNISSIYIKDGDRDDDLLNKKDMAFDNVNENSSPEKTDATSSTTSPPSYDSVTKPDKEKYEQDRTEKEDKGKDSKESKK
Chain of human Nav1.7 (Q07699 19-218 partner): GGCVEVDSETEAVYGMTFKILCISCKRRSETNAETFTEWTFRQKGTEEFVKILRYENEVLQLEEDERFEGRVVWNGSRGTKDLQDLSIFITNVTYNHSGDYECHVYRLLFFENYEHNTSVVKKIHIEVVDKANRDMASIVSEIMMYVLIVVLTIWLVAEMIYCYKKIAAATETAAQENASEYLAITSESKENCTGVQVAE

| SMILES | IC50 (human Nav1.7; [3]) | IC50 (human Nav1.7; [6]) | IC50 (human Nav1.5; [4]) | Inhibition rate (%) (male ICR mice [1]) | IC50 (human Nav1.5; [5]) | 50% pain threshold (antiallodynic effect) (male ICR mice [2]) |
| --- | --- | --- | --- | --- | --- | --- |
| N#Cc1ccc2c(c1)C[C@@H](NC(=O)c1cc3n(n1)CCC(CCOC(F)(F)F)O3)CO2 (single isomer, unassigned) [144 (isomer B)] |  |  |  | A (Compounds with an inhibition rate of 30% or more are indicated by the letter “A”) | ≥ 3000 nM |  |
| Cn1ccc(-c2ccc3c(c2)C[C@@H](NC(=O)c2cc4n(n2)CC(CCOC(F)(F)F)O4)CO3)n1 (single isomer, unassigned) [213 (isomer B)] |  |  |  | B (compounds with an inhibition rate of 20% or more and less than 30% are indicated by the letter “B”) |  |  |
| CCC1CCn2nc(C(=O)N[C@H]3COc4ccc(C#N)cc4C3)cc2O1 (single isomer, unassigned) [Example 92 (isomer B)] |  |  |  | A (Compounds with an inhibition rate of 30% or more are indicated by the letter “A”) |  |  |
| O=C(N[C@H]1COc2ccc(Cl)cc2C1)c1cn2c(n1)CCC(C(F)(F)F)C2 (single isomer, unassigned; isomer a) [Example 288, hydrochloride] |  |  |  | A (Compounds with an inhibition rate of 30% or more are indicated by the letter “A”) |  |  |
| O=C(N[C@H]1COc2ccccc2C1)c1cn2c(n1)CCC(OCC(F)(F)F)C2 (stereo partly drawn) [Example 37, N—((R)-chroman-3-yl)-6-(2,2,2-trifluoroethoxy)-5,6,7,8-tetrahydroimidazo[1,2-a]pyridine-2-carboxamide] | < 10000 nM |  | ≥ 3000 nM | B (compounds with an inhibition rate of 20% or more and less than 30% are indicated by the letter “B”) |  |  |
| O=C(N[C@H]1COc2ccccc2C1)c1cn2c(n1)CNC(c1ccc(F)c(F)c1)C2 (stereo partly drawn) [Example 44] | < 10000 nM |  | ≥ 3000 nM | A (Compounds with an inhibition rate of 30% or more are indicated by the letter “A”) |  |  |
| O=C(NCCc1cccc(C(F)(F)F)c1)c1cn2c(n1)CNC(c1ccccc1)C2 (stereo not drawn) [Example 48] | < 10000 nM |  | ≥ 3000 nM | A (Compounds with an inhibition rate of 30% or more are indicated by the letter “A”) |  |  |
| O=C(c1cn2c(n1)CNC(c1ccccc1)C2)N1CCC(c2cccc(C(F)(F)F)c2)C1 (stereo not drawn) [Example 60] | < 10000 nM |  | ≥ 3000 nM | B (compounds with an inhibition rate of 20% or more and less than 30% are indicated by the letter “B”) |  |  |
| O=C(c1cn2c(n1)CNC(c1ccccc1)C2)N1CCOC(c2cccc(C(F)(F)F)c2)C1 (stereo not drawn) [Example 61] | < 10000 nM |  | ≥ 3000 nM | B (compounds with an inhibition rate of 20% or more and less than 30% are indicated by the letter “B”) |  |  |
| O=C(N[C@H]1COc2ccc(C(F)(F)F)cc2C1)c1nn2c(c1-c1ccccn1)COCC2 [Example 260, (R)-3-(pyridin-2-yl)-N-(6-(trifluoromethyl)chroman-3-yl)-6,7-dihydro-4H-pyrazolo[5,1-c][1,4]oxazine-2-carboxamide] |  | < 1000 nM |  | A (Compounds with an inhibition rate of 30% or more are indicated by the letter “A”) | ≥ 3000 nM |  |
| N#Cc1ccc2c(c1)C[C@@H](NC(=O)c1cc3n(n1)CCN(Cc1ccc(F)cc1)C3)CO2 [Example 290, (R)—N-(6-cyanochroman-3-yl)-5-(4-fluorobenzyl)-4,5,6,7-tetrahydropyrazolo[1,5-a]pyrazine-2-carboxamide hydrochloride] |  |  |  | A (Compounds with an inhibition rate of 30% or more are indicated by the letter “A”) |  | increased the 50% pain threshold |
| Cn1ccc(-c2c(C(=O)N[C@H]3COc4ccc(C(F)(F)F)cc4C3)nn3c2COCC3)n1 [Example 518] |  | < 1000 nM |  |  | 1000 to 3000 nM |  |
| O=C(N[C@H]1COc2ccc(C(F)(F)F)cc2C1)c1nn2c(c1C(O)c1ccccn1)COCC2 (stereo partly drawn) [Example 530] |  | < 10000 nM |  |  | ≥ 3000 nM |  |
| O=C(N[C@H]1COc2ccc(C(F)(F)F)cc2C1)c1nn2c(c1CCc1ccccn1)COCC2 [Example 531] |  | < 10000 nM |  |  | 1000 to 3000 nM |  |
| O=C(N[C@H]1COc2ccc(C(F)(F)F)cc2C1O)c1cc2n(n1)CCN(CCC1CC1)C2 (stereo partly drawn) [Example 593] |  | < 10000 nM |  |  | 1000 to 3000 nM |  |

Now from value to compound, other results behind:

| IC50 (human Nav1.7; [3]) | IC50 (human Nav1.7; [6]) | SMILES | IC50 (human Nav1.5; [4]) | Inhibition rate (%) (male ICR mice [1]) | IC50 (human Nav1.5; [5]) | 50% pain threshold (antiallodynic effect) (male ICR mice [2]) |
| --- | --- | --- | --- | --- | --- | --- |
| < 1000 nM |  | COc1cc(C2CCn3nc(C(=O)N[C@H]4COc5ccc(C#N)cc5C4)cc3O2)ccn1 (single isomer, unassigned) [74 (isomer A)] | ≥ 3000 nM | A (Compounds with an inhibition rate of 30% or more are indicated by the letter “A”) |  |  |
| < 1000 nM |  | CCCOCC1CCn2nc(C(=O)N[C@H]3COc4ccc(C#N)cc4C3)cc2O1 (single isomer, unassigned) [101 (isomer A)] | ≥ 3000 nM | C (compounds with an inhibition rate of 10% or more but less than 20% is indicated by the letter “C”) |  |  |
| < 10000 nM |  | N#Cc1ccc2c(c1)C[C@@H](NC(=O)c1cc3n(n1)CCC(COCC(F)(F)F)O3)CO2 (single isomer, unassigned) [115 (isomer A)] | ≥ 3000 nM | A (Compounds with an inhibition rate of 30% or more are indicated by the letter “A”) |  |  |
| < 1000 nM |  | O=C(N[C@H]1COc2ccc(COCC(F)(F)F)cc2C1)c1cc2n(n1)CCC(COCC(F)(F)F)O2 (single isomer, unassigned) [129 (isomer A)] | ≥ 3000 nM | A (Compounds with an inhibition rate of 30% or more are indicated by the letter “A”) |  |  |
|  | < 1000 nM | COc1ncc(-c2ccc3c(c2)C[C@@H](NC(=O)c2cc4n(n2)CC(CCOCC2CC2)O4)CO3)cn1 (single isomer, unassigned) [204 (isomer A)] |  | A (Compounds with an inhibition rate of 30% or more are indicated by the letter “A”) | ≥ 3000 nM |  |
|  | < 1000 nM | N#Cc1ccc2c(c1)C[C@@H](NC(=O)c1cc3n(n1)CC(CCSCC(F)(F)F)O3)CO2 (single isomer, unassigned) [244 (isomer A)] |  | B (compounds with an inhibition rate of 20% or more and less than 30% are indicated by the letter “B”) | 1000 to 3000 nM |  |
| < 1000 nM |  | CCC1CCn2nc(C(=O)N[C@H]3COc4ccc(C#N)cc4C3)cc2O1 (single isomer, unassigned) [Example 92 (isomer A)] | ≥ 3000 nM | A (Compounds with an inhibition rate of 30% or more are indicated by the letter “A”) |  |  |
| < 10000 nM |  | O=C(N[C@H]1COc2ccc(C(F)F)cc2C1)c1cn2c(n1)CCC(OCC(F)(F)F)C2 (stereo partly drawn) [Example 40] | ≥ 3000 nM | B (compounds with an inhibition rate of 20% or more and less than 30% are indicated by the letter “B”) |  |  |
|  | < 10000 nM | CC(C)(CC1CC1)N1CCn2nc(C(=O)N[C@H]3COc4ccc(C#N)cc4C3)cc2C1 [Example 502] |  |  | 1000 to 3000 nM |  |
|  | < 1000 nM | O=C(N[C@H]1COc2ccc(CC(F)F)cc2C1)c1cc2n(n1)CCN(CCC1CC1)C2 [Example 504] |  |  | 1000 to 3000 nM |  |
|  | < 1000 nM | O=C(N[C@H]1COc2ccc(C(F)(F)F)cc2C1)c1cc2n(n1)CCN(CCC(F)(F)F)C2 [Example 506] |  |  | 1000 to 3000 nM |  |
|  | < 1000 nM | O=C(N[C@H]1COc2ccc(COCC(F)(F)F)cc2C1)c1cc2n(n1)CCN(CCC(F)(F)F)C2 [Example 507] |  |  | ≥ 3000 nM |  |
|  | < 1000 nM | N#CC1(COCC2CCn3nc(C(=O)N[C@H]4COc5ccc(Cl)cc5C4)cc3O2)CC1 (stereo partly drawn) [Example 538] |  |  | ≥ 3000 nM |  |
|  | < 1000 nM | CC(C)(F)C1CCn2nc(C(=O)N[C@H]3COc4ccc(C#N)cc4C3)cc2O1 (stereo partly drawn) [Example 540] |  |  | 1000 to 3000 nM |  |
|  | < 1000 nM | N#Cc1ccc2c(c1)C[C@@H](NC(=O)c1cc3n(n1)CC(C(F)(F)COCC1CC1)O3)CO2 (stereo partly drawn) [Example 541] |  |  | ≥ 3000 nM |  |
|  | < 10000 nM | CC1CCn2nc(C(=O)N[C@H]3COc4ccc(COCC(F)(F)F)cc4C3)cc2OC1 (stereo partly drawn) [Example 543] |  |  | ≥ 3000 nM |  |
|  | < 1000 nM | COC1c2cc(C(F)(F)F)ccc2OC[C@@H]1NC(=O)c1cc2n(n1)CCC(C(F)F)O2 (stereo partly drawn) [Example 568] |  |  | ≥ 3000 nM |  |
